Assays:
[1] = test system: luminal, basal, claudin-low and ERBB2AMP breast cancer cell lines; assay: Associations of clinically relevant subtypes and response (non-parametric ANOVA or t-test on GI50 ranks); assay type: cell-based, human; conditions: Table 6; most sensitive subtype, FDR p<0.20
How it was run: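 GI50 values were compared between cell-line subtype groups by non-parametric ANOVA or t-test on ranks. P-values from three test sets were combined and FDR-corrected. Significant three-group effects were followed by post-hoc comparison of each group against all others, and FDR p<0.20 counted as significant.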

[2] = test system: panel of 55 breast cancer cell lines; assay: Cell growth inhibition assay (Cell Titer Glo, 72 h, 9 doses; GI50, TGI, LC50); assay type: cell-based, human; conditions: value is the negative log10 of mol/L

`NC(=O)Nc1sc(-c2ccc(F)cc2)cc1C(N)=O` [TPCA-1] was tested, and the Subtype specificity [1] was “Basal + Claudin-low”, the GI50 ([2]; BT20 cell line, censored GI50 values) was 4.36 and the GI50 ([2]; HCC38 cell line, censored GI50 values) was 5.50. For the same compound, the GI50 ([2]; HCC70 cell line, censored GI50 values) was 5.44, the GI50 ([2]; HCC1143 cell line, censored GI50 values) was 5.07 and the GI50 ([2]; HCC1187 cell line, censored GI50 values) was 5.67. It also gave a GI50 ([2]; HCC1395 cell line, censored GI50 values) of 5.22, a GI50 ([2]; HCC1419 cell line, censored GI50 values) of 5.53 and a GI50 ([2]; HCC1428 cell line, censored GI50 values) of 5.45. For the same compound, the GI50 ([2]; HCC1500 cell line, censored GI50 values) was 5.39, the GI50 ([2]; HCC1806 cell line, censored GI50 values) was 5.34 and the GI50 ([2]; HCC1954 cell line, censored GI50 values) was 4.77. It also gave a GI50 ([2]; HCC2185 cell line, censored GI50 values) of 5.36, a GI50 ([2]; HCC3153 cell line, censored GI50 values) of 4.87 and a GI50 ([2]; LY2 cell line, censored GI50 values) of 4.54. It also gave a GI50 ([2]; MDAMB134VI cell line, censored GI50 values) of 4.79, a GI50 ([2]; MDAMB231 cell line, censored GI50 values) of 4.45 and a GI50 ([2]; MDAMB361 cell line, censored GI50 values) of 4.18. The GI50 ([2]; MDAMB436 cell line, censored GI50 values) was 5.16, the GI50 ([2]; MDAMB468 cell line, censored GI50 values) was 5.94 and the GI50 ([2]; SUM52PE cell line, censored GI50 values) was 6.25. The GI50 ([2]; SUM149PT cell line, censored GI50 values) was 5.78, the GI50 ([2]; SUM159PT cell line, censored GI50 values) was 5.81 and the GI50 ([2]; SUM1315MO2 cell line, censored GI50 values) was 6.09. It also gave a GI50 ([2]; UACC893 cell line, censored GI50 values) of 5.21, a GI50 ([2]; cell line 600MPE) of 4.18 and a GI50 ([2]; cell line AU565) of 4.18. It also gave a GI50 ([2]; cell line BT20) of 4.36, a GI50 ([2]; cell line BT474) of 4.18 and a GI50 ([2]; cell line BT549) of 4.18. For the same compound, the GI50 ([2]; cell line HCC38) was 5.50, the GI50 ([2]; cell line HCC70) was 5.44 and the GI50 ([2]; cell line HCC202) was 3.88. The GI50 ([2]; cell line HCC1143) was 5.07, the GI50 ([2]; cell line HCC1187) was 5.67 and the GI50 ([2]; cell line HCC1395) was 5.22. It also gave a GI50 ([2]; cell line HCC1419) of 5.53, a GI50 ([2]; cell line HCC1428) of 5.45 and a GI50 ([2]; cell line HCC1500) of 5.39. The GI50 ([2]; cell line HCC1806) was 5.34, the GI50 ([2]; cell line HCC1937) was 4.18 and the GI50 ([2]; cell line HCC1954) was 4.77. It also gave a GI50 ([2]; cell line HCC2185) of 5.36, a GI50 ([2]; cell line HCC3153) of 4.87 and a GI50 ([2]; cell line LY2) of 4.54.
